From paper PMC7725692 (Frontiers in Molecular Neuroscience, 2020)

Legend:
[1] = target: T1, Ace-ACR-16 (Ancylostoma ceylanicum, UniProt A0A7M1S071); assay: cell-based; design: full-length homopentameric receptor, co-expressed with Hco-RIC-3 in Xenopus laevis oocytes; details: read-out: % maximal acetylcholine response
T1 sequence (A0A7M1S071 22-498): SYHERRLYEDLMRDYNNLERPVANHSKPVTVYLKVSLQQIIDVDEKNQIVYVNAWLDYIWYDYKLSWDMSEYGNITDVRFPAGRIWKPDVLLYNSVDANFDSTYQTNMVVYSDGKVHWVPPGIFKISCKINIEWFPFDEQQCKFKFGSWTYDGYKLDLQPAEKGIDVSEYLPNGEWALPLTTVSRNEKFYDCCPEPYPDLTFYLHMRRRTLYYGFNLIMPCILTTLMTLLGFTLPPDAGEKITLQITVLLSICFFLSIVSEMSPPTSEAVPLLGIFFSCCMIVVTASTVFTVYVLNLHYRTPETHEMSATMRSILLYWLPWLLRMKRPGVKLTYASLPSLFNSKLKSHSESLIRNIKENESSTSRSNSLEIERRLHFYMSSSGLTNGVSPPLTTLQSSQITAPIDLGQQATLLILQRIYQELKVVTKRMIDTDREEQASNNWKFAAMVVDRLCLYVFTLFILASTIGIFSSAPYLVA

[2] = target: T1, Ace-ACR-16; assay: two-electrode voltage clamp in Xenopus oocytes, agonist concentration-response (full agonist); format: cell-based; design: full-length homopentameric receptor, co-expressed with Hco-RIC-3 in Xenopus laevis oocytes
[3] = target: T2, Nam-ACR-16 (Necator americanus, UniProt A0A7M1S0Z8); assay: two-electrode voltage clamp in Xenopus oocytes, agonist concentration-response (weak partial agonist); format: cell-based; design: full-length homopentameric receptor, co-expressed with Hco-RIC-3 in Xenopus laevis oocytes
T2 sequence (A0A7M1S0Z8 22-498): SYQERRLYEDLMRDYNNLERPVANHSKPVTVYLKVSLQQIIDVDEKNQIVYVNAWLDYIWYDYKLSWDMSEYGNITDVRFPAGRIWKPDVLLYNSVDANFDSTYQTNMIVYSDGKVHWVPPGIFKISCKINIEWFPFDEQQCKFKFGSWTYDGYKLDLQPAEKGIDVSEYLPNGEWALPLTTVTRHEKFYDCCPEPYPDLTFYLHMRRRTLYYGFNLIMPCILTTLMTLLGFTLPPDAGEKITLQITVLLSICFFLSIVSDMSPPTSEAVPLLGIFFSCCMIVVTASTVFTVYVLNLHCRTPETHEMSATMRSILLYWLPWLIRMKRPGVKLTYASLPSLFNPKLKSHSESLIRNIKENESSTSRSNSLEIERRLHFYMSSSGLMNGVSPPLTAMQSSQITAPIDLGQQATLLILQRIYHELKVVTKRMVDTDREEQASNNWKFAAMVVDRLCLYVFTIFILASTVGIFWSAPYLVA

[4] = target: T1, Ace-ACR-16; assay: cell-based; details: read-out: % inhibition at 500 μM
[5] = target: T2, Nam-ACR-16; assay: cell-based; details: read-out: % inhibition at 500 μM
[6] = target: T2, Nam-ACR-16; assay: two-electrode voltage clamp in Xenopus oocytes, agonist concentration-response; format: cell-based; design: full-length homopentameric receptor, co-expressed with Hco-RIC-3 in Xenopus laevis oocytes

CN1CCCN=C1/C=C/c1cccs1 [pyrantel] gave an Emax [1] of 12.5 ± 7.5%.

Work on CN1CCC[C@H]1c1cccnc1 [nicotine] yielded an EC50 [2] of 24.4 ± 2.89 µM and an EC50 [3] of 598 ± 59.1 µM.

Work on CN1CCCN=C1/C=C/c1cccc(O)c1 [oxantel] yielded an Emax [1] of 15.6 ± 9.6%.

Work on c1ccc([C@H]2CN3CCSC3=N2)cc1 [levamisole] yielded an inhibition at 500 µM [4] of 65.1 ± 14.3% and an inhibition at 500 µM [5] of 79.5 ± 7.7%.

Compound CC(=O)OCC[N+](C)(C)C [acetylcholine] has an EC50 [6] of 170 ± 19.2 µM.
